Molecules are shown by their SMILES.

M. tuberculosis 3β-hydroxysteroid dehydrogenase, sequence (P9WQP7 whole entry, looked up): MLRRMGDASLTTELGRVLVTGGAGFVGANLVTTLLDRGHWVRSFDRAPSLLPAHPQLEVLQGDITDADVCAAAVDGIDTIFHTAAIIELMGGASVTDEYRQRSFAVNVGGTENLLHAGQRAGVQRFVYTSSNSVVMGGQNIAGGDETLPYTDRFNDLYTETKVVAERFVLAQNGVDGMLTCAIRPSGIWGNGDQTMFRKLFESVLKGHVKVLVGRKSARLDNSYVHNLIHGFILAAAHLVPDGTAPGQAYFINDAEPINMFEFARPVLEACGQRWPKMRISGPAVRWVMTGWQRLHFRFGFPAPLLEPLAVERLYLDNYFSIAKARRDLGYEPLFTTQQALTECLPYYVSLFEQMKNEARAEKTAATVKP

The first test addresses M. tuberculosis 3β-hydroxysteroid dehydrogenase (Mycobacterium tuberculosis, UniProt P9WQP7). The test can be described thus: 3β-hydroxysteroid dehydrogenase in vitro inhibitory activity assay. It counts as biochemical.
Details: not given
Molecule `CC(C)(C)c1ccc(C(C)(C)C)c(NC(=O)[C@H]2CCC3C4CNC5=CC(=O)CC[C@]5(C)C4CC[C@@]32C)c1` (stereo partly shown) registered an IC50 of 1 to 50 µM.

Turning to `CC(C)CCCC(C)[C@H]1CCC2C3CNC4=CC(=O)CC[C@]4(C)C3CC[C@@]21C` (stereo partly shown), the concentration for half-maximal inhibition (IC50) is < 1 µM. Still for that read-out and setting: for `CC(C)(C)c1ccc(C(F)(F)F)cc1NC(=O)[C@H]1CCC2C3CNC4=CC(=O)CC[C@]4(C)C3CC[C@@]21C` (stereo partly shown) the value was 1 to 50 µM; for `C[C@]12CCC(=O)C=C1NCC1C2CC[C@@]2(C)C1CC[C@@H]2C(=O)Nc1ccc(N2CCOCC2)cc1` (stereo partly shown), > 50 µM.

The same test, now with this note: purified enzyme, 150 μM dehydroepiandrosterone, 3.5 mM NAD+, pH 8.5, NADH at 340 nm; read-out: IC50 M. tuberculosis 3β-hydroxysteroid dehydrogenase.
As for `CC(C)CCCC(C)[C@H]1CCC2C3C(CC[C@@]21C)[C@@]1(C)CCC(=O)C=C1N[C@H]3C` (stereo partly shown), the 50% inhibitory concentration (IC50) lay in the range of 1 to 50 µM.

`C[C@]12CCC(=O)C=C1NCC1C2CC[C@@]2(C)C1CC[C@@H]2C(=O)Nc1ccccc1C(=O)c1ccccc1` (stereo partly shown): the IC50 lay within 1 to 50 µM. On to `C[C@]12CCC(=O)C=C1NCC1C2CC[C@@]2(C)C1CC[C@@H]2C(=O)O` (stereo partly shown), for which the 50% inhibitory concentration (IC50) was > 50 µM.

(Values after patent publication US8481530B2, “3β-hydroxysteroid dehydrogenase inhibitors” (The Research Foundation of State University of New York, priority 2007, dated 2013).)
